Experimental data: PubChem BioAssay (NCI)
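GI50 = concentration required for 50% inhibition of growth. TGI denotes the concentration required for complete inhibition of growth.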

What was measured:
Experiment in all cases: NCI tumour cell line growth inhibition, 384-well format
SNB-19 CNS = test system: SNB-19 CNS
RXF 393 renal = test system: RXF 393 renal
LOX IMVI melanoma = test system: LOX IMVI melanoma
HCT-15 colon = test system: HCT-15 colon
MOLT-4 leukemia = test system: MOLT-4 leukemia
SK-MEL-2 melanoma = test system: SK-MEL-2 melanoma
MALME-3M melanoma = test system: MALME-3M melanoma
BT-549 breast = test system: BT-549 breast
SNB-75 CNS = test system: SNB-75 CNS
KM12 colon = test system: KM12 colon
M14 melanoma = test system: M14 melanoma
ACHN renal = test system: ACHN renal
MDA-MB-468 breast = test system: MDA-MB-468 breast
TK-10 renal = test system: TK-10 renal
U251 glioblastoma = test system: U251 glioblastoma
SK-OV-3 ovarian = test system: SK-OV-3 ovarian
SK-MEL-5 melanoma = test system: SK-MEL-5 melanoma
DU-145 prostate = test system: DU-145 prostate
CAKI-1 renal = test system: CAKI-1 renal
SN12C renal = test system: SN12C renal
NCI/ADR-RES ovarian = test system: NCI/ADR-RES ovarian
MDA-MB-435 melanoma = test system: MDA-MB-435 melanoma
CCRF-CEM leukemia = test system: CCRF-CEM leukemia
SF-268 CNS = test system: SF-268 CNS
SW-620 colon = test system: SW-620 colon
HOP-92 NSCLC = test system: HOP-92 NSCLC
SF-295 CNS = test system: SF-295 CNS
HL-60(TB) leukemia = test system: HL-60(TB) leukemia
HCC-2998 colon = test system: HCC-2998 colon
OVCAR-3 ovarian = test system: OVCAR-3 ovarian
K-562 leukemia = test system: K-562 leukemia
OVCAR-8 ovarian = test system: OVCAR-8 ovarian
A498 renal = test system: A498 renal
A549 NSCLC = test system: A549 NSCLC
EKVX NSCLC = test system: EKVX NSCLC
UACC-62 melanoma = test system: UACC-62 melanoma
HS 578T breast = test system: HS 578T breast
SK-MEL-28 melanoma = test system: SK-MEL-28 melanoma
NCI-H23 lung = test system: NCI-H23 lung
NCI-H226 lung = test system: NCI-H226 lung
COLO 205 colon = test system: COLO 205 colon
NCI-H460 NSCLC = test system: NCI-H460 NSCLC
NCI-H322M lung = test system: NCI-H322M lung
RPMI-8226 leukemia = test system: RPMI-8226 leukemia
UACC-257 melanoma = test system: UACC-257 melanoma
786-0 renal = test system: 786-0 renal
NCI-H522 lung = test system: NCI-H522 lung
SF-539 CNS = test system: SF-539 CNS
PC-3 prostate = test system: PC-3 prostate
HCT-116 colon = test system: HCT-116 colon
IGROV1 ovarian = test system: IGROV1 ovarian
OVCAR-4 ovarian = test system: OVCAR-4 ovarian
MCF7 breast = test system: MCF7 breast
HOP-62 NSCLC = test system: HOP-62 NSCLC
HT29 colon = test system: HT29 colon

Work on `CCOC(=O)CCC(NC(=O)C(Cc1ccc(N(CCCl)CCCl)cc1)NC=O)C(=O)OCC` (stereo not given) yielded a GI50 (SNB-19 CNS) of 3810 nM, a TGI (SNB-19 CNS) of 26100 nM and a GI50 (RXF 393 renal) of 1760 nM. It also gave a TGI (RXF 393 renal) of 3190 nM, a GI50 (LOX IMVI melanoma) of 2690 nM and a TGI (LOX IMVI melanoma) of 13200 nM. For the same compound, the GI50 (HCT-15 colon) was 4540 nM, the TGI (HCT-15 colon) was 16800 nM and the GI50 (MOLT-4 leukemia) was 32.2 nM. For the same compound, the TGI (MOLT-4 leukemia) was 113 nM, the GI50 (SK-MEL-2 melanoma) was 640 nM and the TGI (SK-MEL-2 melanoma) was 1850 nM. For the same compound, the GI50 (MALME-3M melanoma) was 1030 nM, the TGI (MALME-3M melanoma) was 2220 nM and the GI50 (BT-549 breast) was 12100 nM. For the same compound, the TGI (BT-549 breast) was 27500 nM, the GI50 (SNB-75 CNS) was 2350 nM and the TGI (SNB-75 CNS) was 5590 nM. For the same compound, the GI50 (KM12 colon) was 15000 nM, the TGI (KM12 colon) was 36300 nM and the GI50 (M14 melanoma) was 449 nM. For the same compound, the TGI (M14 melanoma) was 1400 nM, the GI50 (ACHN renal) was 446 nM and the TGI (ACHN renal) was 1880 nM. The GI50 (MDA-MB-468 breast) was 339 nM, the TGI (MDA-MB-468 breast) was 763 nM and the GI50 (TK-10 renal) was 11400 nM. For the same compound, the TGI (TK-10 renal) was 29200 nM, the GI50 (U251 glioblastoma) was 1820 nM and the TGI (U251 glioblastoma) was 6040 nM. The GI50 (SK-OV-3 ovarian) was 3270 nM, the TGI (SK-OV-3 ovarian) was 12400 nM and the GI50 (SK-MEL-5 melanoma) was 1220 nM. For the same compound, the TGI (SK-MEL-5 melanoma) was 2590 nM, the GI50 (DU-145 prostate) was 2420 nM and the TGI (DU-145 prostate) was 5420 nM. For the same compound, the GI50 (CAKI-1 renal) was 463 nM, the TGI (CAKI-1 renal) was 2140 nM and the GI50 (SN12C renal) was 604 nM. It also gave a TGI (SN12C renal) of 2610 nM, a GI50 (NCI/ADR-RES ovarian) of 8380 nM and a TGI (NCI/ADR-RES ovarian) of 21200 nM. It also gave a GI50 (MDA-MB-435 melanoma) of 3190 nM, a TGI (MDA-MB-435 melanoma) of 8840 nM and a GI50 (CCRF-CEM leukemia) of 131 nM. It also gave a TGI (CCRF-CEM leukemia) of 281 nM, a GI50 (SF-268 CNS) of 737 nM and a TGI (SF-268 CNS) of 2280 nM. It also gave a GI50 (SW-620 colon) of 2860 nM, a TGI (SW-620 colon) of 20600 nM and a GI50 (HOP-92 NSCLC) of 1020 nM. The TGI (HOP-92 NSCLC) was 3490 nM, the GI50 (SF-295 CNS) was 2120 nM and the TGI (SF-295 CNS) was 4490 nM. For the same compound, the GI50 (HL-60(TB) leukemia) was 33.5 nM, the TGI (HL-60(TB) leukemia) was 138 nM and the GI50 (HCC-2998 colon) was 712 nM. For the same compound, the TGI (HCC-2998 colon) was 13900 nM, the GI50 (OVCAR-3 ovarian) was 1140 nM and the TGI (OVCAR-3 ovarian) was 2710 nM. The GI50 (K-562 leukemia) was 13100 nM, the TGI (K-562 leukemia) was 27800 nM and the GI50 (OVCAR-8 ovarian) was 3240 nM. For the same compound, the TGI (OVCAR-8 ovarian) was 17000 nM, the GI50 (A498 renal) was 5470 nM and the TGI (A498 renal) was 26600 nM. The GI50 (A549 NSCLC) was 5770 nM, the TGI (A549 NSCLC) was 27500 nM and the GI50 (EKVX NSCLC) was 18900 nM. The TGI (EKVX NSCLC) was 41600 nM, the GI50 (UACC-62 melanoma) was 758 nM and the TGI (UACC-62 melanoma) was 2270 nM. It also gave a GI50 (HS 578T breast) of 2580 nM, a TGI (HS 578T breast) of 14300 nM and a GI50 (SK-MEL-28 melanoma) of 1480 nM. It also gave a TGI (SK-MEL-28 melanoma) of 3340 nM, a GI50 (NCI-H23 lung) of 1120 nM and a TGI (NCI-H23 lung) of 2990 nM. It also gave a GI50 (NCI-H226 lung) of 1710 nM, a TGI (NCI-H226 lung) of 10900 nM and a GI50 (COLO 205 colon) of 602 nM. For the same compound, the TGI (COLO 205 colon) was 2380 nM, the GI50 (NCI-H460 NSCLC) was 566 nM and the TGI (NCI-H460 NSCLC) was 2910 nM. For the same compound, the GI50 (NCI-H322M lung) was 13800 nM, the TGI (NCI-H322M lung) was 30100 nM and the GI50 (RPMI-8226 leukemia) was 355 nM. For the same compound, the TGI (RPMI-8226 leukemia) was 899 nM, the GI50 (UACC-257 melanoma) was 1970 nM and the TGI (UACC-257 melanoma) was 4650 nM. It also gave a GI50 ([…]-0 renal) of 1340 nM, a TGI (786-0 renal) of 2910 nM and a GI50 (NCI-H522 lung) of 729 nM. For the same compound, the TGI (NCI-H522 lung) was 2110 nM, the GI50 (SF-539 CNS) was 837 nM and the TGI (SF-539 CNS) was 2160 nM. The GI50 (PC-3 prostate) was 5250 nM, the TGI (PC-3 prostate) was 19100 nM and the GI50 (HCT-116 colon) was 4130 nM. For the same compound, the TGI (HCT-116 colon) was 24300 nM, the GI50 (IGROV1 ovarian) was 1370 nM and the TGI (IGROV1 ovarian) was 5370 nM. It also gave a GI50 (OVCAR-4 ovarian) of 2600 nM, a TGI (OVCAR-4 ovarian) of 5830 nM and a GI50 (MCF7 breast) of 4060 nM. The TGI (MCF7 breast) was 25900 nM, the GI50 (HOP-62 NSCLC) was 1720 nM and the TGI (HOP-62 NSCLC) was 4130 nM. For the same compound, the GI50 (HT29 colon) was 3710 nM and the TGI (HT29 colon) was 16600 nM.
